We go through three compounds from patent US20220241416A1, “METHODS FOR THE IDENTIFICATION OF SARM1 NADASE ACTIVITY INHIBITORS AND USES THEREOF” (Bar Ilan University, priority 2021, published 2022).

Holding throughout (type): biochemical
Assay [1] deals with T1, hSARM1 (Homo sapiens, UniProt Q6SZW1).
T1 construct: hSARM1w.t; (26ERL . . . GPT724) that was not mutated in E642, was also expressed and isolated; 6xHis (N); TEV cleavage site (N); made in house; host or cells: HEK293F suspension cells
T1 sequence (Q6SZW1 with tags, fused parts or gaps): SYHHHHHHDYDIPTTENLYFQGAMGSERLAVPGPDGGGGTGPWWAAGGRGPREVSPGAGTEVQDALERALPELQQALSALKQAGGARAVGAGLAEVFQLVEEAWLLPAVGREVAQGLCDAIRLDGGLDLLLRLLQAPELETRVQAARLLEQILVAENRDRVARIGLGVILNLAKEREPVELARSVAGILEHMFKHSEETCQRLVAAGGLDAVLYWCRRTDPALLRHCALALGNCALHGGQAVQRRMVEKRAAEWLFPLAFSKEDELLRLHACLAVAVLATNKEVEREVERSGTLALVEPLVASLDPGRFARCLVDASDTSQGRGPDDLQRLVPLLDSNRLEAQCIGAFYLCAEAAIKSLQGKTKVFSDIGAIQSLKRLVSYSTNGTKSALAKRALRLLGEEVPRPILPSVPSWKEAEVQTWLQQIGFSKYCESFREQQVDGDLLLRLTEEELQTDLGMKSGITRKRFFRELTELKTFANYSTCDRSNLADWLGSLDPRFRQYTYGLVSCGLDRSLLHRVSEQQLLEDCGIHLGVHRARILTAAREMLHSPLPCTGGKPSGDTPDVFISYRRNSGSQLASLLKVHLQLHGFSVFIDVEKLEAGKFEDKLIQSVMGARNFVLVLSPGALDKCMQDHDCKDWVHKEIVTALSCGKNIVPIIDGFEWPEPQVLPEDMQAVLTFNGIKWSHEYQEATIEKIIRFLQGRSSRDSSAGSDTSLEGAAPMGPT
In words: In vitro hSARM1 NADase activity, Resasurin assay. Here is the method:
For quantitation of hSARM1 NADase activity and the inhibitory effect of selected compounds (FIG. 6F; FIG. 7A-7B), purified hSARM1w.t. and hSARM1E642Q proteins were first diluted to 400 nM concentration in 25 mM HEPES pH 7.5, 150 mM NaCl, and then mixed in 25° C. with 1 uM of NAD+(in the same buffer) with a 1:1 v/v ratio. All inhibitors were diluted with the same buffer, and the pH values were measured and if necessary titrated to 7.5. Inhibitors were pre-incubated for 20 min with hSARM1 in 25° C. before mixing with NAD+. At designated time points, reactions were quenched by placing the reaction tubes in 95° C. for 2 min. Measurement of NAD+ concentrations was made by a modified enzymatic coupled cycling assay (K. S. Kanamori et al., NAD. Bio Protoc 8, (2018)). The reaction mix, which includes 100 mM Phosphate buffer pH=8, 0.78% ethanol, 4 uM FMN (Riboflavin 5′-monophosphate sodium salt hydrate), 27.2 U/ml Alcohol dehydrogenase (SIGMA), 1.8 U/ml Diaphorase (SIGMA) and freshly dissolved (in DDW) 8 uM Resasurin (SIGMA), was added to each sample at 1:1 (v/v) ratio and then transferred to 384-well black plate (Corning). Fluorescent data was measured using a SynergyHI (BioTek) plate reader at 554-nm excitation and 593-nm emission wavelengths. Standard curve equation for calculation of NAD+ concentration was created for each assay from constant NAD+ concentrations.

Assay [2] deals with T1, hSARM1. Description: HPLC analysis of time dependent NAD+ consumption by hSARM1. The conditions noted are these: 2 mM NAD+ versus 50 μM; porcine brain NADase control not inhibited. The protocol:
Purified hSARM1w.t. was first diluted to 800 nM in 25 mM HEPES pH 7.5, 150 mM NaCl, and then mixed in 37° C. with different concentrations of NAD+(in the same buffer) in a 1:1 v/v ratio and incubated for 0, 5 and 30 min. 1:100 (v/v). BSA (NEB Inc. 20 mg/ml) was included, and reactions were stopped by heating at 95° C. for 2 minutes. Where specified, NMN (Sigma-Aldrich-N3501) was added in different concentrations. For control, NAD+ consumption was compared to a commercially available porcine brain NADase 0.025 units/ml (Sigma-Aldrich-N9879).
HPLC measurements were performed using a Merck Hitachi Elite LaChrom HPLC system equipped with an autosampler, UV detector and quaternary pump. HPLC traces were monitored at 260 nm and integrated using EZChrom Elite software. 10 μL of each sample were injected onto a Waters Spherisorb ODS1 C18 RP HPLC Column (5 μm particle size, 4.6 mm×150 mm ID). HPLC solvents are: A: 100% methanol; B: 120 mM sodium phosphate pH 6.0; C double-distilled water (DDW). The column was pre-equilibrated with B:C mixture ratio of 80:20. Chromatography was performed at room temperature with a flow rate of 1.5 ml/min. Each analysis cycle was 12 min long as follows (A:B:C, v/v): fixed 0:80:20 0-4 min; gradient to 20:80:0 4-6 min; fixed 20:80:0 from 6-9 min. gradient to 0:80:20 from 9-10 min; fixed 0:80:20 from 10-12 min. The NAD+ hydrolysis product ADPR was eluted at the isocratic stage of the chromatography while NAD+ elutes in the methanol gradient stage.

Assay [3] has as its target T1, hSARM1. In words: eNAD-based NADase assay. The conditions noted are these: 1:10 eNAD:NAD+; 400 nM enzyme; activity decreases at higher concentrations. The protocol:
FIG. 7D: Rate of change in nucleotide fluorescence under steady-state conditions of eNAD hydrolysis by hSARM1. Reactions were initiated by mixing 400 nM enzyme with different concentrations of 1:10 eNAD+: NAD+(mol/mol) mixtures. Three repeats, standard deviation error bars.
Serial dilutions were made with 25 mM HEPES pH 7.5, 150 mM NaCl buffer and the final mix was transferred to 384-well black plate (Corning). Reaction started by the addition of hSARM1 to a final concentration 400 nM. Then, eNAD degradation rate was monitored by fluorescence reading (330-nm excitation and 405-nm emission wavelengths) of the plate using a SynergyHI (BioTek) in 25° C. for 3 hours. For each NAD+ concentration, a control reaction without SARM1 was measured and subtracted from the + hSARM1 reading and the slope of the linear area was calculated. For the final plot, average of slopes from 3 separate assays for each concentration was calculated.

Each structure is given as a SMILES string. “Also recorded” adds a separate entry of the source.

With `Nc1ncnc2c1ncn2[C@@H]1O[C@H](COP(=O)(O)OP(=O)(O)OP(=O)(O)O)[C@@H](O)[C@H]1O` [ATP], the “inhibition of hSARM1 NADase activity” value on hSARM1 [1] (analyzed as for glycerol, FIG. 7A) was “inhibits the NADase activity of hSARM1 in a dose-dependent manner”.

Regarding `NC(=O)c1ccc[n+]([C@@H]2O[C@H](COP(=O)([O-])OP(=O)(O)OC[C@H]3O[C@@H](n4cnc5c(N)ncnc54)[C@H](O)[C@@H]3O)[C@@H](O)[C@H]2O)c1` [NAD+, Nicotinamide adenine dinucleotide], the “substrate inhibition of hSARM1 NAD+ hydrolysis” value at hSARM1 [2] is listed as “clearly inhibited; also recorded: tightly inhibited”. Further, the “NAD+ concentration at the highest rate of hydrolysis” value on hSARM1 [3] worked out at 100 µM.

With `OCC(O)CO` [glycerol], the “inhibition of hSARM1 NADase activity” value at hSARM1 [1] (15% glycerol, measured 20 minutes after adding 0.5 μM NAD+) is 72%.
